Patent US8138356B2, “Chemical inhibitors of inhibitors of differentiation” (Angiogeney, Inc., priority 2008, dated 2012)

How the values were obtained:
[1] = biological target: T1, Id1-E47 interaction (Homo sapiens, UniProt P41134); experiment: Gel shift assay: E47 binding to MCK E-box oligonucleotide in the presence of Id1; assay type: biochemical
T1 sequence (P41134 1-155): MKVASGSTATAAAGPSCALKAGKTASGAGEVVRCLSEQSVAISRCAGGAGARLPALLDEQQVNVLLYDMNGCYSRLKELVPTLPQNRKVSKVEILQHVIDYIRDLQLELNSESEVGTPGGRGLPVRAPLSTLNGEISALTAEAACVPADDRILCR
Experimental: Gel shift assays were performed using the 376 small molecules identified in the in silico drug screen and peptide synthesis. The identified compounds were then dissolved in 5% DMSO to a concentration of 100 μm and reacted in binding mixtures that contained E47, Id1 and Mck. As controls, recombinant human E47 was used in a standard binding reaction that contained ^32P labeled MCK double stranded oligonucleotides containing consensus E-Box response element (MCK-5′ TTGATCCCCCCAACACCTGCTGCCTGAAGCT (SEQ ID NO. 1)) and 100 ng of Id1 was added to a standard binding reaction using E47 and p32 labeled MCK. After 30 minutes of incubation, the reaction mixtures were resolved on a 5% non-denaturing polyacrylamide gel and autoradiographed.

[2] = tested on: DU145 cells; experiment: Cell survival/morphology by microscopy, DU145 prostate cancer cells; assay type: cell-based, human; conditions: concentration of 1 um (FIG. 6)
Experimental: Prostate cancer cell lines DU145 and PC3 (in 10% BCS) were obtained from American Type Culture Collection (Rockville, Md.). The cells were cultured in Ham's F12 (Gibco, Carlsbad, Calif.) medium containing 10% BCS (Hyclone, Logan, Utah) and appropriate antibiotics (pen/strep, fungizaone, and gentamycin (Invitrogen Inc., Carlsbad, Calif.). All cells were cultured at 37° C. in a fully humidified atmosphere containing 5% CO2.
At 50% confluence, the cells were treated with either 100 μM DMSO, 1000 mOsmol of urea+NaCL, 1 μM N-[3-(1,3-benzodioxol-5-yl)-3-(2-methoxyphenyl)propyl]-N-benzylpropanamide, 10 μM N-[3-(1,3-benzodioxol-5-yl)-3-(2-methoxyphenyl)propyl]-N-benzylpropanamide, and 100 μM N-[3-(1,3-benzodioxol-5-yl)-3-(2-methoxyphenyl)propyl]-N-benzylpropanamide, 1 μM N′-(4-isopropylphenyl)-1-benzothiophene-2-carbohydrazide, 10 μM N′-(4-isopropylphenyl)-1-benzothiophene-2-carbohydrazide, or 100 μM N′-(4-isopropylphenyl)-1-benzothiophene-2-carbohydrazide. The cell morphology and growth was monitored daily for 1 week by microscopy for changes in morphology or cell death. Apoptosis was determined by measuring caspase 3 and caspase 7 activities using the Caspase-Glo 3/7 Assay system from Promega (Madison, Wis.).

CC(C)c1ccc(NNC(=O)c2cc3ccccc3s2)cc1 [N′-(4-isopropylphenyl)-1-benzothiophene-2-carbohydrazide]
dose dependence of effect in the gel shift assay [1]: dose-proportionality | anti-Id activity in the gel shift assay (shifted band of bound E47-MCK in the presence of Id1) ([1]; compound 100 μm in 5% DMSO, E47, Id1 and MCK, 30 minutes): restore the binding between E47-MCK in the presence of Id1 | survival of DU145 cells [2]: able to induce cell death
